From patent US5366983A, “Use of quaternary ammonium compounds to remove salmonella contamination from meat products” (The Board of Trustees of The University of Arkansas, priority 1992, dated 1994)
“And” between values parts separate entries of the source, which are not always exact repeats. Equal values may be shown once. Read-outs that look alike come from different tables or passages of the source.

Columns and labels:
[1] = system: Salmonella typhimurium ATCC 14028
Experimental: Salmonella typhimurium ATCC 14028 was used for these studies and prepared as follows. A 16 hour culture in nutrient broth (BBL) was centrifuged at 15,000 rpm for 10 minutes at 4° C. The deposit was washed once with 0.04 M potassium phosphate buffer (PPB) at pH 7.0 and resuspended in fresh PPB to contain 1-2×10^9 bacteria/ml. Samples (1.0 ml) of this suspension were added into a 1.8 ml Eppendorff vial and centrifuged at 14,000 rpm for 4 minutes. The pellets were first suspended in 1.0 ml of PPB or 1.0 ml of an appropriate concentration of test chemical solution, and then centrifuged and washed with the buffer under the same conditions. After washing, the samples of bacterial suspensions were appropriately diluted in PPB. Duplicate 0.05 ml samples were withdrawn and immediately added onto nutrient agar plates. Colonies were counted after 24 hours incubation at 37° C.

[2] = system: Salmonella typhimurium TA98; assay: Salmonella reversion assay, TA98
Experimental: (§1) Test strains TA98 and TA100 were obtained from Bruce N. Ames (University of California, Berkley, Calif.). Mutagenicities were determined both in the absence of and in the presence of a mammalian liver S9 activating system. S9 is the 9000×g supernatant prepared from liver homogenates from Aroclor 1254 stimulated male Sprague Dawley rats. The S9 was purchased from Molecular Toxicology, Inc. (Anapolis, Md.).
(§2) Bacterial broth cultures were grown overnight at 37° with shaking in Oxoid Broth #2. For assays in the absence of S9, a 0.5 ml aliquot of 100 mM Sodium Phosphate Buffer, pH 7.4, was added to sterile 13×100 mm capped culture tubes. For assays in the presence of S9, a 0.5 ml aliquot of 10% S9 mix was added. The S9 mix consisted of 8 mM magnesium chloride, 33 mM potassium chloride, 5 mM glucose-6-phosphate, 4 mM NADP, 100 mM sodium phosphate, pH 7.4 and S9 in a concentration of approximately 1.46 mg protein/ml.
(§3) The culture tubes were placed in an ice bath and 0.1 ml of the bacterial suspension and 0.1 ml of a DMSO solution of the test compound were added. The mixture was vortexed gently and incubated at 37° for 20 minutes with shaking in a water bath. Molten top agar (2.0 ml) containing 0.5 mM histidine HCl and 0.5 mM biotin were added, and the mixture was vortexed gently and poured onto a minimal glucose plate. After allowing the agar to solidify, the plates were inverted and placed in a 37° incubator in the dark for 48 hours. The revertant (mutant) colonies were counted and the background lawn was examined on all plates. A response that was two times that of the DMSO solvent control was considered a positive response.

[3] = system: Salmonella typhimurium TA100; assay: Salmonella reversion assay, TA100
Experimental: as §1, §2, §3

[4] = system: Salmonella typhimurium ATCC 14028; assay: Effect on viability of Salmonella in suspension (Tables D-1 to D-3); assay type: cell-based; details: Table D-1
Outline: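 Bactericidal activity against Salmonella measured in suspension; EC50 derived by nonlinear regression of kill versus molar concentration. Na2-EDTA and EGTA dissolved and diluted in 0.04 M PPB; EGTA heated 15 minutes at 80° C., adjusted to pH 7.0 with NaOH, filter-sterilized.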

[5] = system: Salmonella attachment to human buccal epithelial cells; details: count on treated cell / untreated cell
Experimental: The Salmonella suspension and the human buccal epithelial cells were prepared according to the method described in the detachment experiments of Example 1, except that only the control buccal epithelial cells were suspended in PBS and washed twice at 4500 rpm for 10 minutes. […] The exposure of the buccal epithelial cells to the Salmonella suspension and all subsequent procedures were performed according to the method described in Example 1.

[6] = system: Salmonella typhimurium TA100; assay: Salmonella reversion assay after heating at 205° C., TA100; assay type: cell-based; details: for Revertants/plate: heated at 205° C.
Experimental: Test strains TA98 and TA100 were used. Again, mutagenicities were determined both in the absence and in the presence of the mammalian liver S9 activating system.
A response that was two times that of the solvent control was considered a positive response.

CCCCCCCCCCCCCCCC[n+]1ccccc1 [CPC, cetylpyridinium chloride]
bacterial viability ([1]; CPC 10 ug/ml + 0.0625% Na2-EDTA): 6.21 ± 0.75 × 10^8 CFU/ml | bacterial viability ([1]; CPC 10 ug/ml + 0.125% Na2-EDTA): 6.24 ± 0.79 × 10^8 CFU/ml | bacterial viability ([1]; CPC 10 ug/ml + 0.5% Na2-EDTA): 5.79 ± 0.1 × 10^8 CFU/ml | bacterial viability ([1]; CPC 10 ug/ml, no chelating agent): 6.08 ± 0.6 × 10^8 CFU/ml | bacterial viability ([1]; CPC 17 ug/ml + 0.125% Na2-EDTA): 1.52 ± 0.42 × 10^7 CFU/ml | bacterial viability ([1]; CPC 17 ug/ml + 0.5% Na2-EDTA): 4.8 ± 0.42 × 10^6 CFU/ml | bacterial viability ([1]; CPC 17 ug/ml, no chelating agent): 7.25 ± 0.1 × 10^7 CFU/ml | bacterial viability ([1]; CPC 20 ug/ml + 0.25% EGTA): 3.01 ± 0.44 CFU/ml | bacterial viability ([1]; CPC 20 ug/ml + 1% EGTA): 2.64 ± 0.32 CFU/ml | bacterial viability ([1]; CPC 30 ug/ml + 0.25% EGTA): 85 ± 65 CFU/ml | bacterial viability ([1]; CPC 30 ug/ml + 0.25% Na2-EDTA): 20 ± 13 CFU/ml | bacterial viability ([1]; CPC 30 ug/ml, no chelating agent): 117 ± 189 CFU/ml and 82 ± 73 CFU/ml | bacterial viability ([1]; CPC 40 ug/ml + 1% EGTA): 0 CFU/ml | bacterial viability ([1]; CPC 40 ug/ml, no chelating agent): 8 ± 14 CFU/ml | decrease in cell viability ([1]; CPC and Na2-EDTA used together): 2.5 fold | log reduction at 20 µg/mL ([1]; Salmonella enterica, read-out: decrease in CFU/ml): 1.5 | Revertants/plate ([2]; TA98, +S9, 1 μg/plate): 25 ± 2 Revertants/plate | Revertants/plate ([2]; TA98, +S9, 5 μg/plate): 28 ± 1 Revertants/plate | Revertants/plate ([2]; TA98, +S9, 10 μg/plate): 25 ± 3 Revertants/plate | Revertants/plate ([2]; TA98, +S9, 20 μg/plate): 28 ± 2 Revertants/plate | Revertants/plate ([2]; TA98, +S9, 40 μg/plate): 30 ± 1 Revertants/plate | Revertants/plate ([2]; TA98, +S9, 50 μg/plate): 35 ± 6 Revertants/plate | Revertants/plate ([2]; TA98, -S9, 1 μg/plate): 24 ± 3 Revertants/plate | Revertants/plate ([2]; TA98, -S9, 5 μg/plate): 18 ± 4 Revertants/plate | mutagenicity (in words) ([2]; TA98, absence of S9, low concentrations): nonmutagenic | mutagenicity and cytotoxicity (in words) ([2]; TA98, presence of S9): neither mutagenic nor cytotoxic | Revertants/plate ([3]; TA100, +S9, 5 μg/plate): 129 ± 14 Revertants/plate | Revertants/plate ([3]; TA100, +S9, 10 μg/plate): 136 ± 11 Revertants/plate | Revertants/plate ([3]; TA100, +S9, 20 μg/plate): 126 ± 14 Revertants/plate | Revertants/plate ([3]; TA100, +S9, 40 μg/plate): 125 ± 5 Revertants/plate | Revertants/plate ([3]; TA100, +S9, 50 μg/plate): 126 ± 10 Revertants/plate | Revertants/plate ([3]; TA100, -S9, 1 μg/plate): 98 ± 5 Revertants/plate | Revertants/plate ([3]; TA100, -S9, 5 μg/plate): 133 ± 5 Revertants/plate | Revertants/plate ([3]; TA100, -S9, 10 μg/plate): 130 ± 9 Revertants/plate | mutagenicity (in words) ([3]; TA100, absence of S9, low concentrations): nonmutagenic | mutagenicity and cytotoxicity (in words) ([3]; TA100, presence of S9): neither mutagenic nor cytotoxic | bacterial viability ([4]; 20 ug/ml): 1.84 ± 0.087 × 10^8 CFU/ml | bacterial viability ([4]; 22.5 ug/ml): 9.07 ± 2.16 × 10^7 CFU/ml | bacterial viability ([4]; 25 ug/ml): 5.15 ± 1.18 × 10^6 CFU/ml | Counts/con ([5]; 2.5 mcg/mL): 62/71 | Counts/con ([5]; 5 mcg/mL): 41/71 | Counts/con ([5]; 10 mcg/mL): 26/70 and 24/74 | Counts/con ([5]; 100 mcg/mL): 30/70 and 23/74 | Revertants/plate ([6]; TA100, +S9, 0.1 μg/plate): 122 ± 3 Revertants/plate | Revertants/plate ([6]; TA100, +S9, 1.0 μg/plate): 126 ± 14 Revertants/plate | Revertants/plate ([6]; TA100, +S9, 5.0 μg/plate): 118 ± 10 Revertants/plate | Revertants/plate ([6]; TA100, +S9, 10.0 μg/plate): 123 ± 8 Revertants/plate | Revertants/plate ([6]; TA100, -S9, 0.1 μg/plate): 117 ± 6 Revertants/plate | Revertants/plate ([6]; TA100, -S9, 1.0 μg/plate): 113 ± 8 Revertants/plate | Revertants/plate ([6]; TA100, -S9, 5.0 μg/plate): 123 ± 4 Revertants/plate | Revertants/plate ([6]; TA100, -S9, 10.0 μg/plate): 126 ± 4 Revertants/plate | mutagenicity after heating in vegetable oil (in words) ([6]; TA100, absence or presence of S9, all concentrations tested): did not produce substances which are mutagenic
